Measured values published in ChEMBL document CHEMBL1152995, “Combined real-time PCR and pyrosequencing strategy for objective, sensitive, specific, and high-throughput identification of reduced susceptibility to penicillins in Neisseria meningitidis” (2008).
In brackets after ≈: the same amount, converted by molar mass.

Assays:
[1] = system: Neisseria meningitidis; experiment: Antibacterial activity against penicillin-intermediate resistant Neisseria meningitidis clinical isolates harbouring altered penA gene after 24 hrs by Etest method; type: functional
[2] = system: Neisseria meningitidis; experiment: Antibacterial activity against penicillin-intermediate resistant Neisseria meningitidis after 24 hrs by Etest method; type: functional

Structure (SMILES) | MIC [1] [µg/mL] | MIC [2] [µg/mL]
CO/N=C(\C(=O)N[C@@H]1C(=O)N2C(C(=O)O)=C(COC(C)=O)CS[C@H]12)c1csc(N)n1 [CEFOTAXIME] | ≤ 0.012 | 
CC1(C)S[C@@H]2[C@H](NC(=O)[C@H](N)c3ccccc3)C(=O)N2[C@H]1C(=O)O [AMPICILLIN] | > 0.064 | 
CC1(C)S[C@@H]2[C@H](NC(=O)Cc3ccccc3)C(=O)N2[C@H]1C(=O)O [PENICILLIN G] | > 0.094 | 0.064 (≈ 0.191 µM)
